Ends that are not written are not given here.
How the values were obtained:
[1] = tested on: spontaneously hypertensive rats (SHR); assay: Measurement of blood pressure by the tail-cuff method after a single oral dose; type: in vivo, rat; settings: captopril 50 mg kg^−1 bw oral single dose, mean ± SEM, n = 6
Description: Male SHR (17–20 weeks old, weighing 350–400 g) were obtained from Charles River Laboratories España S.A. (Barcelona, Spain). The animals were singly housed in animal quarters at 22 °C with a 12 h light–dark period. They were fed with a standard diet based on chow Panlab A04 (Panlab, Barcelona, Spain) and had access to tap water ad libitum.
The SBP and DBP in the animals were measured using the tail‐cuff method 23 with a noninvasive BP system model (Letica, Hospitalet, Barcelona, Spain). The rats were given a single dose of 10 mg kg^−1 body weight (bw) of the synthesized peptides, including VGKPGARAPMY, QVGPLIGRYCG, AVFQHNCQE, LSGPVKF, or AVKILP, dissolved in tap water in a total volume of 1.5 mL. Peptides were administered to the SHR by gastric […] through an acute administration between 9 and 10 in the morning.
Positive control rats received 50 mg kg^−1 bw of captopril, a known ACE‐inhibitor, also dissolved in 1.5 mL of tap water, and the negative control rats received 1.5 mL of tap water. SBP was measured in the rats before peptide administration as well as 2, 4, 6, 8, and 24 h post‐administration. […] The changes in SBP and DBP were expressed as the differences in these variables before and after the administration of the different peptides. […]
Differences between treatments were analyzed by two‐way analysis of variance (two‐way ANOVA). […] Outliers were determined using Grubbs’ test. […]

[2] = biological target: T1, ACE (angiotensin I‐converting enzyme, EC 3.4.15.1) (Oryctolagus cuniculus, UniProt P12822); assay: ACEI activity, fluorimetric assay with o-Abz-Gly-p-Phe(NO2)-Pro-OH; type: biochemical; settings: synthetic peptides; concentration of peptide needed to inhibit 50 % of the original ACE activity
T1 sequence (P12822 34-1310): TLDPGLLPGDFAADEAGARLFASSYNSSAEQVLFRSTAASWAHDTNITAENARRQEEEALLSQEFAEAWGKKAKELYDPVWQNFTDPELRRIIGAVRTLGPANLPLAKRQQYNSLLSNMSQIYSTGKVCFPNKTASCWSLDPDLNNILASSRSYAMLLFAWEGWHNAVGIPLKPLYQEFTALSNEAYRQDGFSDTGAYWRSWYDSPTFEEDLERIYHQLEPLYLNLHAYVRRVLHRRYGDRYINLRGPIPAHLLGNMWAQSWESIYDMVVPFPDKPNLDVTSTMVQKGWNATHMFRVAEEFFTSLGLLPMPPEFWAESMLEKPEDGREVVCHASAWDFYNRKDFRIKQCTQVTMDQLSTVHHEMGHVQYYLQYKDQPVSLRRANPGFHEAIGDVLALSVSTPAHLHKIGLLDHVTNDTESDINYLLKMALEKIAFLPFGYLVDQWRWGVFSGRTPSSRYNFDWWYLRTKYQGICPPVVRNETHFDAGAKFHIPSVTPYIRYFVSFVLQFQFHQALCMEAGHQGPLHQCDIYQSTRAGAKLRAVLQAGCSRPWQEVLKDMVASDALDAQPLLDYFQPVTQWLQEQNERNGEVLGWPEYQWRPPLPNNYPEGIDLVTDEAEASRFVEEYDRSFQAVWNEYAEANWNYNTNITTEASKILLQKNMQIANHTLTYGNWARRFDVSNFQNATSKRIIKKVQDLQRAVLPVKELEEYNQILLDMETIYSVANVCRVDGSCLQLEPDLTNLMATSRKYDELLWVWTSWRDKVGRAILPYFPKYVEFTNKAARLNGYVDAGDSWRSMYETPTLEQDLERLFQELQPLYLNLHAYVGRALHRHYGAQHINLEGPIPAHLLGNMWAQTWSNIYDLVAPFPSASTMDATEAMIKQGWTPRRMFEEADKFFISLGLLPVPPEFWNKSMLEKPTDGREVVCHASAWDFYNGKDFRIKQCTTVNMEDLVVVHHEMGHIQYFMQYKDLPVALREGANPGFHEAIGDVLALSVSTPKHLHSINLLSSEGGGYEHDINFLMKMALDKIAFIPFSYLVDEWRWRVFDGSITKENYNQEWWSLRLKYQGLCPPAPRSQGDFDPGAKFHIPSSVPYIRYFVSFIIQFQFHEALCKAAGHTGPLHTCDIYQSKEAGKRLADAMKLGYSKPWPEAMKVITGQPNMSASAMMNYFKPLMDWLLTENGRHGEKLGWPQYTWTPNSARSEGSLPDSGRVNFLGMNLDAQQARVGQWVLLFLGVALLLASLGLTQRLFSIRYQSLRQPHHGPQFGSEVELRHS
Description: Chicken feet (Gallus gallus domesticus) were provided by a local farm (Granja Gaià, La Riera de Gaià, Spain). Protamex solutions (EC 3.4.21.62 and 3.4.24.28, 1.5 AU g^−1 from Bacillus licheniformis and Bacillus amyloliquefaciens) were kindly provided by Novozymes (Bagsværd, Denmark). ACE (angiotensin I‐converting enzyme, EC 3.4.15.1) was purchased from Sigma‐Aldrich (Madrid, Spain), captopril (PubChem CID: 44093) was purchased from Santa Cruz Biotechnology (Dallas, TX, USA) and o‐aminobenzoylglicil‐p‐nitrofenilalanilprolina (o‐Abz‐Gly‐p‐Phe(NO2)‐Pro‐OH) was provided by Bachem Feinchemikalien (Bubendorf, Switzerland). The synthesized peptides (LSETVV, LSGPVKF, AVKILP, VRWEPAPGPV, VGKPGARAPMY, QVGPLIGRYCG, LGIHPDWQFV, and AVFQHNCQE, purity grade ≥ 90 %) were purchased from Caslo Laboratory ApS (Kongens Lyngby, Denmark). Acetonitrile and trifluoroacetic acid were purchased from Sigma‐Aldrich. All other chemical solvents used were of analytical grade.
ACEI activity was measured according to Mas‐Capdevila et al.21 The fluorescence measurements were performed after 30 min in a multiscan microplate fluorimeter (FLUOstar optima, BMG Labtech, Offeuburg, Germany). The excitation and emission wavelengths were 360 and 400 nm, respectively. The software used to process the data was FLUOstar control (version 1.32 R2, BMG Labtech).
A nonlinear fit was performed on the experimental data to calculate the 50 % inhibitory concentration values (IC50) with the PRISM version 4.02 program for Windows (GraphPad Software, Inc. San Diego, CA, USA). ACEI activity was expressed as a percentage (%) or IC50 (µg µL^−1 solution). The determination of the ACEI activity of the samples was performed at least in duplicate. Data are represented as a mean value ± standard deviation (SD).
Protein content was determined by the bicinchoninic acid method using the standard Pierce BCA Protein Assay (ThermoFisher Scientific). The assay was conducted according to the manufacturer's instructions in a microplate format. A calibration standard curve was prepared with seroalbumin bovine. Determination of the protein content was performed at least in duplicate. The results are expressed as the mean ± SD.

ACE = tested on: ACE; parameters: method as in earlier work; settings: read-out: ACEI activity IC50 of fermented milk-derived peptides; cited from earlier work

## C[C@H](CS)C(=O)N1CCC[C@H]1C(=O)O [captopril]
[1]; 4 h post-administration
  maximum decrease in DBP: −32.97 ± 8.80 mmHg
[1]; 6 h post-administration
  maximum decrease in SBP: −33.67 ± 1.94 mmHg

## AVFQHNCQE [AVFQHNCQE]
[2]
  IC50: 44.8 µM

## AVKILP [AVKILP]
[2]
  IC50: 7.1 µM

## LGIHPDWQFV [LGIHPDWQFV]
[2]
  IC50: > 138 µM

## LHLPLP [known antihypertensive fermented milk-derived peptide]
ACE
  IC50: 5.5 µM

## LSGPVKF [LSGPVKF]
[2]
  IC50: 80.9 µM

## QVGPLIGRYCG [QVGPLIGRYCG]
[2]
  IC50: 11 µM

## VRWEPAPGPV [VRWEPAPGPV]
[2]
  IC50: > 150 µM
